Data taken from ChEMBL document CHEMBL5214970, “Discovery and optimization of orally bioavailable and potent plasma Kallikrein inhibitors bearing a quaternary carbon” (Bioorg Med Chem, 2022).

Columns and labels:
[1] = target: T1, Plasma kallikrein (Homo sapiens, UniProt P03952); test: Inhibition of purified human plasma kallikrein using H-D-Pro-Phe-Arg-pNA.2HCl as substrate measured after 3 mins by microplate reader analysis
[2] = target: T1, Plasma kallikrein; test: Inhibition of endogenous human plasma kallikrein using Z-Phe-Arg-AMC.HCl as substrate measured after 5 mins by microplate reader analysis
[3] = Cmax in Sprague-Dawley rat at 10 mg/kg,po; format: ADME, organism-based; parameters: dose 10 mg/kg, route po; conditions: in vivo
[4] = Cmin in Sprague-Dawley rat at 10 mg/kg,po measured after 24 hrs; format: ADME, organism-based; conditions: in vivo; for concentration at 24 h: Sprague-Dawley, read-out: Cmin
[5] = AUC (0 to 24hrs) in Sprague-Dawley rat at 10 mg/kg,po; format: ADME, organism-based; parameters: time < 24 hr, dose 10 mg/kg, route po; conditions: in vivo; for AUC(0-t) at 24 h: Sprague-Dawley

T1 sequence (P03952 20-390 limits assumed): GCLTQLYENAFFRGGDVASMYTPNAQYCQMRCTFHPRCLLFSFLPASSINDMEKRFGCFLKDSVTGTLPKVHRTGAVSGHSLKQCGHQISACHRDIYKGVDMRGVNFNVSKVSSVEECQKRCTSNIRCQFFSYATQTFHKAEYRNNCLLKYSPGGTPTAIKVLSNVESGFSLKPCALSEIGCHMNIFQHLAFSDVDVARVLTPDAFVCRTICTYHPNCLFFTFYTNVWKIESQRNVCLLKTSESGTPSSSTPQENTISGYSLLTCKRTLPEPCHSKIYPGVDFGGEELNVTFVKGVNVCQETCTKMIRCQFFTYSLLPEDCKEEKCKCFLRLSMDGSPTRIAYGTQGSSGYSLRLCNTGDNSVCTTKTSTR
T1 sequence (P03952 391-638 limits assumed): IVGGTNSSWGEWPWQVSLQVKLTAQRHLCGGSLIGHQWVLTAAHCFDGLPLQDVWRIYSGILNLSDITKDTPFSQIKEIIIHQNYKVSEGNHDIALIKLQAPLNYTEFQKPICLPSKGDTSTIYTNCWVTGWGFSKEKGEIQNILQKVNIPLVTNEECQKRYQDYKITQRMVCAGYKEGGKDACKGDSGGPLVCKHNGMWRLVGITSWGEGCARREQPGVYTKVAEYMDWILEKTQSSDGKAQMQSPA

Compound	IC50 [1]	IC50 [2]	Cmax ([3]; Sprague-Dawley, read-out: Cmax)	concentration at 24 h [4]	AUC(0-t) at 24 h [5]	Cmax [3]	Cmin ([4]; po, 10 mg/kg, 24 h)	AUC ([5]; 24 h)
NCc1cccc(-n2nc(C(F)(F)F)cc2C(=O)Nc2cccc(C(O)(CCC3CC3)c3ccccn3)c2)c1 (stereo unspecified)	18.5 nM	104 nM	–	–	–	–	–	–
NCc1cccc(-n2nc(C(F)(F)F)cc2C(=O)Nc2cc(C(N)(CCC3CC3)c3cccc(C(N)=O)c3)ccc2F)c1 (stereo unspecified)	1.3 nM	6 nM	17 ng/mL	9.4 ng/mL	306 ng·h/mL	–	–	–
NCc1cccc(-n2nc(C(F)(F)F)cc2C(=O)Nc2cc(C(N)(CCC3CC3)c3ccc(C(N)=O)cc3)ccc2F)c1 (stereo unspecified)	0.9 nM	3.8 nM	–	–	–	–	–	–
N#Cc1cccc(C(N)(CCC2CC2)c2ccc(F)c(NC(=O)c3cc(C(F)(F)F)nn3-c3cccc(CN)c3)c2)n1 (stereo unspecified)	2.9 nM	12 nM	676 ng/mL	53.3 ng/mL	2890 ng·h/mL	–	–	–
NCc1cccc(-n2nc(C(F)(F)F)cc2C(=O)Nc2cccc(C(NCC3CC3)c3ccccc3)c2)c1 (stereo unspecified)	5.4 nM	19.3 nM	–	–	–	–	–	–
NCc1cccc(-n2nc(C(F)(F)F)cc2C(=O)Nc2cccc(C(CCC3CC3)c3ccccc3)c2)c1 (stereo unspecified)	10.4 nM	2030 nM	–	–	–	–	–	–
NCc1cccc(-n2nc(C(F)(F)F)cc2C(=O)Nc2cc(C(N)(CCC3CC3)c3ccc(C(N)=O)nc3)ccc2F)c1 (single isomer, unassigned; (+))	2.3 nM	1.7 nM	27 ng/mL	–	134 ng·h/mL	–	–	–
NCc1cccc(-n2nc(C(F)(F)F)cc2C(=O)Nc2cccc(C(O)(CCC3CC3)c3ccccc3)c2)c1 (stereo in doubt; 6)	14 nM	191 nM	–	–	–	–	–	–
NCc1cccc(-n2nc(C(F)(F)F)cc2C(=O)Nc2cccc(C(O)(CCC3CC3)c3cccnc3)c2)c1 (stereo in doubt; 8)	5.7 nM	23 nM	–	–	–	–	–	–
NCc1cccc(-n2nc(C(F)(F)F)cc2C(=O)Nc2cccc(C(O)(CCC3CC3)c3ccncc3)c2)c1 (stereo in doubt; 9)	4.7 nM	17 nM	–	–	–	–	–	–
NCc1cccc(-n2nc(C(F)(F)F)cc2C(=O)Nc2cccc(C(O)(CCC3CC3)c3ccccc3)c2)c1 (stereo in doubt; 10)	1.2 nM	56 nM	–	–	–	–	–	–
NCc1cccc(-n2nc(C(F)(F)F)cc2C(=O)Nc2cccc(C(O)(CCC3CC3)c3ccccc3)c2)c1 (stereo in doubt; 11)	62 nM	1190 nM	–	–	–	–	–	–
NCc1cccc(-n2nc(C(F)(F)F)cc2C(=O)Nc2cccc(C(O)(CCC3CC3)c3cccnc3)c2)c1 (stereo in doubt; 18)	1.9 nM	9 nM	51 ng/mL	–	128 ng·h/mL	–	–	–
NCc1cccc(-n2nc(C(F)(F)F)cc2C(=O)Nc2cccc(C(O)(CCC3CC3)c3cccnc3)c2)c1 (stereo in doubt; 19)	59 nM	264 nM	–	–	–	–	–	–
NCc1cccc(-n2nc(C(F)(F)F)cc2C(=O)Nc2cc(C(O)(CCC3CC3)c3cccnc3)ccc2F)c1 (stereo in doubt; 20)	–	–	383 ng/mL	13 ng/mL	1440 ng·h/mL	–	–	–
NCc1cccc(-n2nc(C(F)(F)F)cc2C(=O)Nc2cc(C(O)(CCC3CC3)c3cccnc3)ccc2F)c1 (stereo in doubt; 21)	–	–	–	–	–	224 ng/mL	9 ng/mL	887 ng·h/mL
NCc1cccc(-n2nc(C(F)(F)F)cc2C(=O)Nc2cccc(C(O)(CCC3CC3)c3ccncc3)c2)c1 (stereo in doubt; 23)	1.3 nM	7.6 nM	7 ng/mL	–	11 ng·h/mL	–	–	–
NCc1cccc(-n2nc(C(F)(F)F)cc2C(=O)Nc2cccc(C(O)(CCC3CC3)c3ccncc3)c2)c1 (stereo in doubt; 24)	59 nM	178 nM	–	–	–	–	–	–
NCc1cccc(-n2nc(C(F)(F)F)cc2C(=O)Nc2cc(C(O)(CCC3CC3)c3ccncc3)ccc2F)c1 (stereo in doubt; 25)	1.1 nM	7.7 nM	42 ng/mL	2 ng/mL	95 ng·h/mL	–	–	–
NCc1cccc(-n2nc(C(F)(F)F)cc2C(=O)Nc2cc(C(O)(CCC3CC3)c3ccncc3)ccc2F)c1 (stereo in doubt; 26)	180 nM	165 nM	–	–	–	–	–	–
NCc1cccc(-n2nc(C(F)(F)F)cc2C(=O)Nc2cc(C(N)(CCC3CC3)c3ccccn3)ccc2F)c1 (stereo in doubt; 29)	–	–	157 ng/mL	15.1 ng/mL	960 ng·h/mL	–	–	–
NCc1cccc(-n2nc(C(F)(F)F)cc2C(=O)Nc2cc(C(N)(CCC3CC3)c3cccnc3)ccc2F)c1 (stereo in doubt; 31)	–	–	190 ng/mL	9.62 ng/mL	888 ng·h/mL	–	–	–
NCc1cccc(-n2nc(C(F)(F)F)cc2C(=O)Nc2cc(C(N)(CCC3CC3)c3ccncc3)ccc2F)c1 (stereo in doubt; 33)	1.5 nM	3 nM	93 ng/mL	22.9 ng/mL	825 ng·h/mL	–	–	–
NCc1cccc(-n2nc(C(F)(F)F)cc2C(=O)Nc2cc(C(N)(CCC3CC3)c3ccncc3)ccc2F)c1 (stereo in doubt; 34)	118 nM	76 nM	–	–	–	–	–	–
Cc1cc(C(N)(CCC2CC2)c2ccc(F)c(NC(=O)c3cc(C(F)(F)F)nn3-c3cccc(CN)c3)c2)ccn1 (stereo in doubt; 35)	1.2 nM	3 nM	390 ng/mL	24.5 ng/mL	1560 ng·h/mL	–	–	–
Cc1cc(C(N)(CCC2CC2)c2ccc(F)c(NC(=O)c3cc(C(F)(F)F)nn3-c3cccc(CN)c3)c2)ccn1 (stereo in doubt; 36)	18.4 nM	–	–	–	–	–	–	–
N#Cc1cccc(C(N)(CCC2CC2)c2ccc(F)c(NC(=O)c3cc(C(F)(F)F)nn3-c3cccc(CN)c3)c2)c1 (stereo in doubt; 37)	1.3 nM	3.2 nM	429 ng/mL	56.5 ng/mL	3330 ng·h/mL	–	–	–
N#Cc1cccc(C(N)(CCC2CC2)c2ccc(F)c(NC(=O)c3cc(C(F)(F)F)nn3-c3cccc(CN)c3)c2)c1 (stereo in doubt; 38)	234 nM	382 nM	–	–	–	–	–	–
N#Cc1ccc(C(N)(CCC2CC2)c2ccc(F)c(NC(=O)c3cc(C(F)(F)F)nn3-c3cccc(CN)c3)c2)cc1 (stereo in doubt; 41)	–	–	303 ng/mL	40.1 ng/mL	2290 ng·h/mL	–	–	–
